Values of other authors, collected in patent US7273620B1, “Triggered release of liposomal drugs following mixing of cationic and anionic liposomes” (University of British Columbia, priority 2002, dated 2007).

Conditions: from LUV; depends on acyl chain length of ceramide anchor

1-O-(2′-(ω-methoxypolyethylene-glycol)succinoyl)-2-N-myristoylsphyngosine [PEG-CerC14]
dissociation rate of PEG-Ceramide: 1.2 h
